The results in this text go back to patent publication US20260015574A1, “METHODS FOR SHORTENING LAG PHASE DURATION IN MICROORGANISMS” (YEDA RESEARCH AND DEVELOPMENT CO. LTD., priority 2022, published 2026).

One test relates to P. inhibens. The experiment in a line: Lag phase metabolomics with 13C-labeled DMSP. Format: cell-based, Phaeobacter inhibens. As to conditions: 50 μM 13C-labeled DMSP, two hours, LC/MS. How it is done:
DMSP was synthesized in which both S-methyl groups are ^13C-labeled, using the protocol of Wirth and Whitman (2018). Freshly initiated P. inhibens cultures (OD 0.01, ASW+CNS medium) were treated with 50 μM 13C-labeled DMSP and compared to reference cultures with non-labeled DMSP. Bacterial cells were harvested and extracted two hours after adding DMSP. The incorporation of the 13C label was analyzed by LC/MS (FIG. 12).
To further elucidate the fate of methyl groups, the inventors analyzed the transcriptome of DMSP-treated P. inhibens bacteria during the lag phase, and compared it to untreated control cultures. […] To further establish that DMSP methyl groups are assimilated via the methionine cycle, the inventors measured the methionine synthesis activity in protein crude extracts of stationary bacterial cells, using a biochemical assay followed by LC/MS analysis. […] Taken together, the inventors established that DMSP methyl groups are assimilated during the lag phase via the methionine cycle.

The subject of test [1] is Phaeobacter inhibens DSM 17395. In words: Growth / lag phase shortening assay of P. inhibens pure cultures with glucose. The conditions noted are these: for lag phase shortening effect (Δlag time) of panel compounds: 1 mM glucose and 2 μM of the respective compound. Format: cell-based. How it is done:
ASW was adjusted to pH 8 using HCl. If not otherwise stated, the medium was further supplemented with a source of carbon (glucose, 1 mM), nitrogen (NH4Cl, 5 mM), and sulfur (Na2SO4, 33 mM), referred to as ASW+CNS. […] A 96-well Tecan Infinite M Plex plate reader was used for high-resolution monitoring of bacterial growth dynamics at 30° C. An ImageStreamX Flow Imager system (Amnis) was used to characterize bacterial populations during the lag phase (FIG. 6). The growth of bacteria in co-culture with algae was monitored by counting colony forming units (CFU) on ½ YTSS agar plates. The growth of algae was monitored with a CellStream flow cytometer (Merck, Darmstadt, Germany).
To test whether methylated compounds affect the growth of bacteria, the inventors cultivated bacterial pure cultures with glucose as main growth substrate and supplemented the medium with the well-studied methylated compound dimethylsulfoniopropionate (DMSP). DMSP that is naturally produced by microalgae and found in detectable levels in seawater, is known to be metabolized by various bacteria. […] To quantify the lag phase shortening effect, the inventors calculated the Δlag time, which is the time difference between the commence of exponential growth in control cultures compared to treated cultures (FIG. 5B).
To reflect the natural low bacterial abundance in the oligotrophic ocean with low microalgal productivity, the current bacterial growth experiments were routinely initiated with an optical density (OD) of 0.00001. Such low initial ODs challenge the detection of cell divisions that occur prior to reaching an OD of at least 0.001, which is the theoretical limit of detection. To determine the actual length of the lag phase, the inventors analyzed bacterial cultures using imagining flow cytometry.

In another test the test system is P. inhibens Δbmt mutant. In words: Growth and lag phase shortening in Δbmt mutant. It is filed as cell-based, Phaeobacter inhibens. As to conditions: minimal media, addition of 200 μM methionine. How it is done: (§1) For creation of P. inhibens knockout cells, ˜1,000 bp regions upstream and downstream of the gene of interest were amplified by PCR (Phusion High-Fidelity DNA polymerase, Thermo Scientific), using primers that added homologous regions to gentamycin or kanamycin resistance markers. The fragments were assembled and cloned into the TOPOII vector (Invitrogen) using restriction-free cloning (Peleg Y. & Unger T., 2014), generating a knockout (KO) plasmid. P. inhibens electrocompetent cells (300 μl) were transformed with 10 μg of the constructed KO plasmid by a pulse of 1.8 kV (Bio Rad). Cells were selected on ½YTSS agar plates containing 30 μg/ml gentamycin or 150 μg/ml kanamycin. Successful knockouts in single cell clones were verified by PCR and sanger sequencing.

A further test deals with Various marine bacteria. In words: Lag phase shortening in various marine bacteria. It is filed as cell-based. As to conditions: minute amounts of compound. How it is done: (§2) The bacterial strain Phaeobacter inhibens DSM 17395 was purchased from the German collection of microorganisms and cell cultures (DSMZ, Braunschweig, Germany) and stored at −80° C. with 20% glycerol. Routine cultivation of P. inhibens was conducted at 30° C. in artificial seawater medium (ASW) based on Goyet and Poisson (1989). The ASW medium contained mineral salts (NaCl, 409.41 mM; Na2SO4, 28.22 mM; KCl, 9.08 mM; KBr, 0.82 mM; NaF, 0.07 mM; Na2CO3, 0.20 mM; NaHCO3, 2 mM; MgCl2, 50.66 mM; SrCl2, 0.09 mM), L1 vitamins (thiamine HCl, 100 μg/L; biotin, 0.5 μg/L; vitamin B12, […]), L1 trace elements (Na2EDTA·2H2O, 4.36 mg/L; FeCl3·6H2O, 3.15 mg/L; MnCl2·4H2O, 178.1 μg/L; ZnSO4·7H2O, 23.0 μg/L; CoCl2·6H2O, 11.9 μg/L; CuSO4·5H2O, 2.5 μg/L; Na2MoO4·2H2O, 19.9 μg/L; H2SeO3, 1.29 μg/L; NiSO4·6H2O, 2.63 μg/L; Na3 VO4, 1.84 μg/L; K2CrO4, 1.94 μg/L), and L1 nutrients (NaNO3, 882 μM; NaH2PO4, 36.22 μM). ASW was adjusted to pH 8 using HCl. […] A 96-well Tecan Infinite M Plex plate reader was used for high-resolution monitoring of bacterial growth dynamics at 30° C. […] The growth of bacteria in co-culture with algae was monitored by counting colony forming units (CFU) on ½ YTSS agar plates. The growth of algae was monitored with a CellStream flow cytometer (Merck, Darmstadt, Germany). […]

Test [2] concerns P. inhibens mttB1 KO mutant. The experiment in a line: Lag phase shortening in mttB1 knockout mutant. It is filed as cell-based, Phaeobacter inhibens. How it is done: as §1
The inventors further sought to better understand why methyl groups shorten the bacterial lag phase. The inventors list at least three cellular scenarios which could explain the effect that methylated compounds have on the lag phase: (1) methyl groups might be a limiting resource; (2) methyl groups might act as a signal that triggers a cellular cascade, which culminates in lag phase shortening; and (3) methylated compounds could accumulate intracellularly and function as osmoprotectants and antioxidants. […]

The test system of test [3] is marine bacterium Vibrio sp. The experiment in a line: Lag phase shortening in Vibrio sp. It is filed as cell-based. The conditions noted are these: 2 μM compound. The protocol:
as §2

Test [4] has as its system Bacillus subtilis strain 168. In words: Lag phase shortening in B. subtilis. Format: cell-based. How it is done:
The bacterial strain Phaeobacter inhibens DSM 17395 was purchased from the German collection of microorganisms and cell cultures (DSMZ, Braunschweig, Germany) and stored at −80° C. with 20% glycerol. Routine cultivation of P. inhibens was conducted at 30° C. in artificial seawater medium (ASW) based on Goyet and Poisson (1989). The ASW medium contained mineral salts (NaCl, 409.41 mM; Na2SO4, 28.22 mM; KCl, 9.08 mM; KBr, 0.82 mM; NaF, 0.07 mM; Na2CO3, 0.20 mM; NaHCO3, 2 mM; MgCl2, 50.66 mM; SrCl2, 0.09 mM), L1 vitamins (thiamine HCl, 100 μg/L; biotin, 0.5 μg/L; vitamin B12, […]), L1 trace elements (Na2EDTA·2H2O, 4.36 mg/L; FeCl3·6H2O, 3.15 mg/L; MnCl2·4H2O, 178.1 μg/L; ZnSO4·7H2O, 23.0 μg/L; CoCl2·6H2O, 11.9 μg/L; CuSO4·5H2O, 2.5 μg/L; Na2MoO4·2H2O, 19.9 μg/L; H2SeO3, 1.29 μg/L; NiSO4·6H2O, 2.63 μg/L; Na3 VO4, 1.84 μg/L; K2CrO4, 1.94 μg/L), and L1 nutrients (NaNO3, 882 μM; NaH2PO4, 36.22 μM). ASW was adjusted to pH 8 using HCl. If not otherwise stated, the medium was further supplemented with a source of carbon (glucose, 1 mM), nitrogen (NH4Cl, 5 mM), and sulfur (Na2SO4, 33 mM), referred to as ASW+CNS. Methylated effector compounds (e.g., donors) were administered at 1 or 2 μM in routine assays, or in higher concentrations as stated. The bacterium Bacillus subtilis strain 168 was cultivated in M9 Medium (Na2HPO4, 6 g/L; KH2PO4, 3 g/L; NaCl, 0.5 g/L; NH4CL, 1 g/L; CaCl2), 100 µM; MgSO4, 1 mM; Thiamine, 5 mg/L; EDTA, 50 mg/L; FcCl3, 4.98 mg/L; ZnCl2, 0.84 mg/L; CuCl2·2H2O, 0.13 mg/L; CoCl2·6H2O, 0.1 mg/L; H3BO3, 0.1 mg/L; MnCl2·4H2O, 0.016 mg/L; pH 7.1) with 20 mM glucose. Other bacterial strains tested for lag phase shortening were isolated from the marine environment (Despotović et al., 2021), and cultivated in ASW+CNS. A 96-well Tecan Infinite M Plex plate reader was used for high-resolution monitoring of bacterial growth dynamics at 30° C. […] The growth of bacteria in co-culture with algae was monitored by counting colony forming units (CFU) on ½ YTSS agar plates. The growth of algae was monitored with a CellStream flow cytometer (Merck, Darmstadt, Germany). […]

Test [5] has as its system bacteria that are plant-associated. In words: Lag phase shortening in plant-associated bacteria. Format: cell-based. The text has this:
(§3) To explore whether lag phase shortening is a general mechanism among bacteria, the inventors tested the effect of methylated compounds in bacteria with different lifestyles. […] Since methylated compounds are a hallmark of photosynthesizing organisms, the inventors next tested a variety of bacteria that are plant-associated. […] Finally, to establish the prevalence of lag phase shortening among bacteria, the inventors tested the model bacterium E. coli. This bacterium is not commonly found associated with photosynthesizing organisms, and thus, is unlikely to respond to algal metabolites. […] The synchrony between specific compounds and different groups of bacteria may reflect the natural context […].

The test system of a further test is E. coli. In words: Lag phase shortening in E. coli. Format: cell-based, Escherichia coli.
From the text: as §3

The test system of test [6] is opportunistic pathogens, found in both plants and humans. The experiment in a line: Lag phase shortening in opportunistic pathogens found in plants and humans. It is filed as cell-based.
From the text: as §3

Consider `[13CH3][S+]([13CH3])CCC(=O)[O-]` [13C-labeled DMSP], for which the “metabolic fate of DMSP methyl groups (13C label incorporation)” value in the test on P. inhibens is reported as “converted into SAM”.
Turning to `C[S+](C)CCC(O)CC(=O)[O-]` (centres unmarked) [gonyol], in test [1], the “lag phase shortening effect (Δlag time) of panel compounds” value (shortened to “lag phase shortening effect (Δlag time)”) is “most pronounced”.
Consider `CSCC[C@H](N)C(=O)O` [methionine], for which the “lag phase shortening effect (Δlag time)” value in test [1] is listed as “prolonged the lag phase”. Moreover, the “growth of the Δbmt mutant” value in the test with P. inhibens Δbmt mutant is listed as “fully recovered”.
As to `C[N+](C)(C)CC(O)CC(=O)[O-]` (centres unmarked) [carnitine], in test [1], the “lag phase shortening effect (Δlag time)” value is on record as “most pronounced”.
With `COc1cc(Cc2cnc(N)nc2N)cc(OC)c1OC` [Trimethoprim, reference compound], the “growth of P. inhibens in the presence of the THF inhibitor” value in test [1] is listed as “cannot grow unless the culture is supplemented with nucleotides”.
With `C[N+](C)(C)CC(=O)O` [betaine, glycine betaine], the lag phase shortening result was “marked lag phase shortening” in the test on Various marine bacteria; “does not shorten the lag phase” in test [2]; “induction of the lag phase shortening” in test [3]; “induction of the lag phase shortening” in test [4] (2 μM compound); “significant shortening of the lag phase” in [5]; “did not shorten the lag phase” in the test on E. coli (treatment with algal metabolites). Moreover, the “lag phase shortening effect (Δlag time)” value in test [1] is “most pronounced”. The same molecule came in with a Δlag time in test [4] (FIG. 17B) of 7 h.
`C[S+](C)CC(=O)[O-]` [DMSA, dimethylsulfonioacetate]: the “lag phase shortening effect (Δlag time)” value in test [1] is listed as “most pronounced”.
The same measure, in the same setting: in the case of `C[N+]1(C)CCC[C@H]1C(=O)[O-]` [stachydrine] it was “most pronounced”.
With `C[S+](C)CC[C@H](N)C(=O)O` [SMM, S-methyl-L-methionine], the lag phase shortening result is listed as “shorten their lag phase” in test [6]; “this effect was observed” in the test on E. coli (modified strains BL21(DE3) and DH5α); “only showed this effect upon addition of greater SMM concentrations” in the test with E. coli (wild-type strain K12). Besides, the Δlag time result with E. coli (E. coli BL21, 2 μM SMM (FIG. 17C)) was “Δlag time of one hour”.
